How the values were obtained:
[1] = molecular target: GDP-bound NRAS wild-type protein (Homo sapiens, UniProt P01111); experiment: Binding to NRAS by surface plasmon resonance (SPR), Single Cycle Kinetics; settings: KD ratio NRAS/KRAS, SPR, GDP-bound wild-type proteins
[2] = molecular target: GDP-bound HRAS wild-type protein (Homo sapiens, UniProt P01112); experiment: Binding to HRAS by surface plasmon resonance (SPR), Single Cycle Kinetics; settings: KD ratio HRAS/KRAS, SPR, GDP-bound wild-type proteins
Sequence of GDP-bound HRAS wild-type protein (P01112 whole entry): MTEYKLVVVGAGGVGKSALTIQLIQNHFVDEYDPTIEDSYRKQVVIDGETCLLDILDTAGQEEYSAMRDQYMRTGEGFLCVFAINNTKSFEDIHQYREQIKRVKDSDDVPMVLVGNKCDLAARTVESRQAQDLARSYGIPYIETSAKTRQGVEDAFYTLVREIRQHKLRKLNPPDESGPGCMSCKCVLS

Sequence of GDP-bound NRAS wild-type protein (P01111 whole entry): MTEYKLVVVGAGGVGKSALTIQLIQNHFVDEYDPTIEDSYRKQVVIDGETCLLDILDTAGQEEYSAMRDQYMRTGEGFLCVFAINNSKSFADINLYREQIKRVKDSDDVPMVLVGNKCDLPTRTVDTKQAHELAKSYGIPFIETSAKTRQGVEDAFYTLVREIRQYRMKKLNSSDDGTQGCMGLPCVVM

Structure (SMILES)	NRAS/KRAS (ratio of KD value with respect to GDP-bound NRAS wild-type protein to KD value with respect to KRAS) [1]	HRAS/KRAS (ratio of KD value with respect to GDP-bound HRAS wild-type protein to KD value with respect to KRAS) [2]
CCO[C@@H]1C[C@H]2C(=O)NC3(CC(C)(C)C3)C(=O)N(C)[C@@H](C3CCCC3)C(=O)N(C)[C@H](C(=O)N3CCCC3)CC(=O)N(C)[C@H]3CCCCCc4ccc(cc4)C[C@@H](C(=O)N(C)CC(=O)N[C@@H](CCc4ccc(C(F)(F)F)c(OC)c4)C(=O)N2C1)N1CC/C=C\C[C@@H](C1=O)N(C)C(=O)CN(C)C(=O)[C@H]([C@@H](C)CC)NC3=O [PP3037, (1S,7S,11R,13S,19S,22S,26S,29S,35S,37Z)-19-cyclopentyl-11-ethoxy-7-[2-[3-methoxy-4-(trifluoromethyl)phenyl]ethyl]-3,3′,3′,18,21,25,31,34-octamethyl-29-[(1S)-1-methylpropyl]-22-(pyrrolidine-1-carbonyl)spiro[3,6,9,15,18,21,25,28,31,34,41-undecazapentacyclo[24.15.10.2^43,46.1^35,41.0^9,13]tetrapentaconta-37,43(53),44,46(52)-tetraene-16,1′-cyclobutane]-2,5,8,14,17,20,24,27,30,33,54-undecone]	A (a compound having 10 or more and less than 20 is denoted as A)	B (a compound having 3 or more and less than 10 is denoted as B)
CCCO[C@@H]1C[C@H]2C(=O)NC3(CC(C)(C)C3)C(=O)N(C)[C@@H](C(CC)CC)C(=O)N(C)[C@H](C(=O)N(C)C)CC(=O)N(C)[C@H]3CCCCc4ccc(cc4)C[C@@H](C(=O)N(C)CC(=O)N[C@@H](CCc4ccc(C(F)(F)F)c(OC)c4)C(=O)N2C1)N1CC/C=C\C[C@@H](C1=O)N(C)C(=O)CN(C)C(=O)[C@H]([C@@H](C)CC)NC3=O [PP3038]	A (a compound having 10 or more and less than 20 is denoted as A)	A (a compound having 10 or more and less than 20 is denoted as A)
CCO[C@@H]1C[C@H]2C(=O)NC3(CCC3)C(=O)N(C)[C@@H](C(CC)CC)C(=O)N(C)[C@H](C(=O)N3CCCCC3)CC(=O)N(C)[C@H]3CCC/C=C/c4ccc(cc4)C[C@@H](C(=O)N(C)CC(=O)N[C@@H](CCc4ccc(Cl)c(Cl)c4)C(=O)N2C1)N1CC/C=C\C[C@@H](C1=O)N(C)C(=O)CN(C1CC1)C(=O)[C@H]([C@@H](C)CC)NC3=O [PP3039]	AA (a compound having 20 or more is denoted as AA)	A (a compound having 10 or more and less than 20 is denoted as A)
CCO[C@@H]1C[C@H]2C(=O)NC3(CCC3)C(=O)N(C)[C@@H](C(CC)CC)C(=O)N(C)[C@H](C(=O)N3CCCC3)CC(=O)N(C)[C@H]3CCC/C=C/c4ccc(cc4)C[C@@H](C(=O)N(C)CC(=O)N[C@@H](CCc4ccc(Cl)c(Cl)c4)C(=O)N2C1)N1CC/C=C\C[C@@H](C1=O)N(C)C(=O)CN(C1CC1)C(=O)[C@H]([C@@H](C)CC)NC3=O [PP3040]	AA (a compound having 20 or more is denoted as AA)	A (a compound having 10 or more and less than 20 is denoted as A)
CCO[C@@H]1C[C@H]2C(=O)NC3(CC(C)(C)C3)C(=O)N(C)[C@@H](C(CC)CC)C(=O)N(C)[C@H](C(=O)N(C)C)CC(=O)N(C)[C@H]3CCCC/C=C/c4ccc(cc4)C[C@@H](C(=O)N(C)CC(=O)N[C@@H](CCc4cc(F)c(C(F)(F)F)c(F)c4)C(=O)N2C1)N1CC/C=C\C[C@@H](C1=O)N(C)C(=O)CN(C)C(=O)[C@H]([C@@H](C)CC)NC3=O [PP3044]	AA (a compound having 20 or more is denoted as AA)	A (a compound having 10 or more and less than 20 is denoted as A)
CCO[C@@H]1C[C@H]2C(=O)NC3(CC(C)(C)C3)C(=O)N(C)[C@@H](C(CC)CC)C(=O)N(C)[C@H](C(=O)N(C)C)CC(=O)N(C)[C@H]3CCCC/C=C/c4ccc(cc4)C[C@@H](C(=O)N(C)CC(=O)N[C@@H](CCc4ccc(Cl)c(Cl)c4)C(=O)N2C1)N1CC/C=C\C[C@@H](C1=O)N(C)C(=O)CN(C)C(=O)[C@H]([C@@H](C)CC)NC3=O [PP3045]	AA (a compound having 20 or more is denoted as AA)	A (a compound having 10 or more and less than 20 is denoted as A)
CCO[C@@H]1C[C@H]2C(=O)NC3(CCC3)C(=O)N(C)[C@@H](C(CC)CC)C(=O)N(C)[C@H](C(=O)N3CCCCC3)CC(=O)N(C)[C@H]3CCCC/C=C/c4ccc(cc4)C[C@@H](C(=O)N(C)CC(=O)N[C@@H](CCc4ccc(Cl)c(Cl)c4)C(=O)N2C1)N1CC/C=C\C[C@@H](C1=O)N(C)C(=O)CN(C)C(=O)[C@H]([C@@H](C)CC)NC3=O [PP3046]	AA (a compound having 20 or more is denoted as AA)	A (a compound having 10 or more and less than 20 is denoted as A)
CCO[C@@H]1C[C@H]2C(=O)NC3(CCC3)C(=O)N(C)[C@@H](C(CC)CC)C(=O)N(C)[C@H](C(=O)N3CCCC3)CC(=O)N(C)[C@H]3CCCC/C=C/c4ccc(cc4)C[C@@H](C(=O)N(C)CC(=O)N[C@@H](CCc4ccc(Cl)c(Cl)c4)C(=O)N2C1)N1CC/C=C\C[C@@H](C1=O)N(C)C(=O)CN(C)C(=O)[C@H]([C@@H](C)CC)NC3=O [PP3047, (1S,7S,11R,13S,19S,22S,26S,29S,35S,37Z,47E)-7-[2-(3,4-dichlorophenyl)ethyl]-11-ethoxy-19-(1-ethylpropyl)-3,18,21,25,31,34-hexamethyl-29-[(1S)-1-methylpropyl]-22-(pyrrolidine-1-carbonyl)spiro[3,6,9,15,18,21,25,28,31,34,41-undecazapentacyclo[24.15.11.2^43,46.1^35,41.0^9,13]pentapentaconta-37,43(54),44,46(53),47-pentaene-16,1′-cyclobutane]-2,5,8,14,17,20,24,27,30,33,55-undecone]	AA (a compound having 20 or more is denoted as AA)	A (a compound having 10 or more and less than 20 is denoted as A)
CCO[C@@H]1C[C@H]2C(=O)NC3(CC(C)(C)C3)C(=O)N(C)[C@@H](C(CC)CC)C(=O)N(C)[C@H](C(=O)N(C)C)CC(=O)N(C)[C@H]3CCCCC/C=C/c4ccc(cc4)C[C@@H](C(=O)N(C)CC(=O)N[C@@H](CCc4cc(F)c(C(F)(F)F)c(F)c4)C(=O)N2C1)N1CC/C=C\C[C@@H](C1=O)N(C)C(=O)CN(C)C(=O)[C@H]([C@@H](C)CC)NC3=O [PP3048]	A (a compound having 10 or more and less than 20 is denoted as A)	A (a compound having 10 or more and less than 20 is denoted as A)
CCO[C@@H]1C[C@H]2C(=O)NC3(CCC3)C(=O)N(C)[C@@H](C3CCCC3)C(=O)N(C)[C@H](C(=O)N3CCCC3)CC(=O)N(C)[C@H]3CCCCC/C=C/c4ccc(cc4)C[C@@H](C(=O)N(C)CC(=O)N[C@@H](CCc4ccc(Cl)c(Cl)c4)C(=O)N2C1)N1CC/C=C\C[C@@H](C1=O)N(C)C(=O)CN(C)C(=O)[C@H]([C@@H](C)CC)NC3=O [PP3049]	AA (a compound having 20 or more is denoted as AA)	A (a compound having 10 or more and less than 20 is denoted as A)
CCO[C@@H]1C[C@H]2C(=O)NC3(CC(C)(C)C3)C(=O)N(C)[C@@H](C(CC)CC)C(=O)N(C)[C@H](C(=O)N(C)C)CC(=O)N(C)[C@H]3CCCCC/C=C/c4ccc(cc4)C[C@@H](C(=O)N(C)CC(=O)N[C@@H](CCc4ccc(Cl)c(Cl)c4)C(=O)N2C1)N1CC/C=C\C[C@@H](C1=O)N(C)C(=O)CN(C)C(=O)[C@H]([C@@H](C)CC)NC3=O [PP3050]	AA (a compound having 20 or more is denoted as AA)	A (a compound having 10 or more and less than 20 is denoted as A)
CCO[C@@H]1C[C@H]2C(=O)NC3(CCC3)C(=O)N(C)[C@@H](C(CC)CC)C(=O)N(C)[C@H](C(=O)N3CCCCC3)CC(=O)N(C)[C@H]3CCCCC/C=C/c4ccc(cc4)C[C@@H](C(=O)N(C)CC(=O)N[C@@H](CCc4ccc(Cl)c(Cl)c4)C(=O)N2C1)N1CC/C=C\C[C@@H](C1=O)N(C)C(=O)CN(C)C(=O)[C@H]([C@@H](C)CC)NC3=O [PP3051]	AA (a compound having 20 or more is denoted as AA)	A (a compound having 10 or more and less than 20 is denoted as A)
CCO[C@@H]1C[C@H]2C(=O)NC3(CCC3)C(=O)N(C)[C@@H](C(CC)CC)C(=O)N(C)[C@H](C(=O)N3CCCC3)CC(=O)N(C)[C@H]3CCCCC/C=C/c4ccc(cc4)C[C@@H](C(=O)N(C)CC(=O)N[C@@H](CCc4ccc(Cl)c(Cl)c4)C(=O)N2C1)N1CC/C=C\C[C@@H](C1=O)N(C)C(=O)CN(C)C(=O)[C@H]([C@@H](C)CC)NC3=O [PP3052]	AA (a compound having 20 or more is denoted as AA)	A (a compound having 10 or more and less than 20 is denoted as A)
CC[C@H](C)[C@@H]1NC(=O)[C@@H]2CCC/C=C/c3ccc(cc3)C[C@@H](C(=O)N(C)CC(=O)N[C@@H](CCc3ccc(Cl)c(Cl)c3)C(=O)N3C[C@H](OC4CCC4)C[C@H]3C(=O)NC3(CC(C)(C)C3)C(=O)N(C)[C@@H](C3CCCC3)C(=O)N(C)[C@H](C(=O)N3CCCC3)CC(=O)N2C)N2CC/C=C\C[C@@H](C2=O)N(C)C(=O)CN(C)C1=O [PP3053]	A (a compound having 10 or more and less than 20 is denoted as A)	A (a compound having 10 or more and less than 20 is denoted as A)
